In patent publication US12478624B2, “Heterocyclic derivatives, pharmaceutical compositions and their use in the treatment or amelioration of cancer” (Tolremo Therapeutics AG, priority 2019, dated 2025):

Experiments:
CBP Bromodomain = target: T1, CBP Bromodomain (Homo sapiens, UniProt Q92793); test: Assay 3: CBP bromodomain binding assay (TR-FRET)
T1 construct: purchased Cayman chemicals 600850
Procedure: Assay 3 CBP Bromodomain Binding Assay (TR-FRET)
Compounds solutions of 10 mM in DMSO were pre-diluted in DSMO to 25× stock solutions in DMSO. These were then diluted down to 4× in assay buffer. A dilution series in assay buffer was performed keeping the DMSO concentration stable. 5 μl compound in assay buffer was transferred into the assay plate (provided by assay kit) and the TR-FRET assay Cayman chemicals; 600850) was performed using the manufactor's instructions. After 1 hour incubation at room temperature in the darks, assay plates were read in a Tecan M1000 plate reader or a Tecan Spaks reader using the TR-FRET mode (top read; excitation 340 nm bandwidth […]; emission 620 nm bandwidth […]; gain optimal determined for the first well, number of flashes: 5; flash frequency 100 Hz; integration time: 500 μs, lag time: 100 μs, room temperature). The TR-FRET ratio was calculated by deviding 670 nm emission by 620 nm emission. Values were log transformed and non-linear regression with variable slope (4 parameters) was used to fit values to a dose-response curve to evaluate EC50 values.

A375 cells = test: Assay 1: A375 cells treated with S1152, S1008 and compound, immunofluorescence (sc-365823) signal; type: cell-based; conditions: 1 μM S1152 + 0.5 μM S1008, one day
Summary of the method: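 A375 cells treated one day with 1 μM S1152, 0.5 μM S1008 and compound dose ranges in DMEM/10% FCS, then fixed, permeabilised and immunostained. Green signal normalised to nuclear counterstain (ethidium-type or DAPI), log ratio fitted by four-parameter regression for EC50.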

OPM-2 = test: Assay 2: multiple myeloma cellular efficacy, PrestoBlue cell proliferation/survival; type: cell-based; conditions: Homo sapiens, 96 h, OPM-2 cells, 4 days
Summary of the method: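 Cells seeded at 10000/well and exposed to a compound dose range or vehicle for 4 days, then stained with PrestoBlue for 2 h at 37 °C. Fluorescence was background-subtracted and normalized to vehicle; EC50 came from a four-parameter variable-slope fit against log concentration.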

T1 sequence (Q92793 1085-1192 limits assumed): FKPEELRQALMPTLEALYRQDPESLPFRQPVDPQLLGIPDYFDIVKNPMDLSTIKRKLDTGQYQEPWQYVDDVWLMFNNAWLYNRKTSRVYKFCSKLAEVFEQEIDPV

EC50 (CBP Bromodomain) | EC50 (A375 cells) | SMILES | EC50 (OPM-2)
< 200 nM | < 200 nM | CC(=O)Nc1cc(F)cc(Nc2cc(-c3cncc4c3ccn4C)nc([C@@H]3CC[C@H](C)N(C(C)=O)C3)n2)c1 [Compound 00092, N-(3-((2-((3R,6S)-1-acetyl-6-methylpiperidin-3-yl)-6-(1-methyl-1H-pyrrolo[2,3-c]pyridin-4-yl)pyrimidin-4-yl)amino)-5-fluorophenyl)acetamide] | < 200 nM
< 200 nM | < 200 nM | CC(=O)N1C[C@H](c2nc(Nc3ccnc(C(C)C)c3)cc(-c3cnccn3)n2)CC[C@@H]1C [Compound 00153, 1-((2S,5R)-5-(4-((2-isopropylpyridin-4-yl)amino)-6-(pyrazin-2-yl)pyrimidin-2-yl)-2-methylpiperidin-1-yl)ethan-1-one] | 200 to 1000 nM
